US20260184697A1, “EZH1/2 INHIBITOR, PREPARATION THEREOF, AND USE THEREOF IN ANTI-TUMOR THERAPY” (JIANGSU TASLY DIYI PHARMACEUTICAL CO., LTD., priority 2022, published 2026)
Where two headings read alike, the source gives them in different places.

Key:
EZH2/SUZ/EED = molecular target: T1, EZH2/SUZ/EED (Homo sapiens, UniProt O75530+Q15022+Q15910); assay: Inhibitory effect on EZH2 by the MTase-Glo method (Test Example 1); assay type: biochemical; conditions: EZH2/SUZ/EED 6.25 nM, H3 peptide 10 μM, SAM 3 μM, 30° C. 3 h, read-out: Test Example 1 WT EZH2 IC50
T1 construct: purchased BPS 51003
Experimental: (§1) The compound was dissolved in DMSO, and the compound was serially diluted using ECHO665 and transferred to a 384-well reaction plate (Corning, 3824). A sample containing only DMSO was added as a positive control (maximum signal control) and a negative control (minimum signal control), while ensuring that the final DMSO content in each reaction well was 0.5%. The protein was configured in reaction buffer (50 mM Bicine, 0.01% Triton X-100, 1 mM DTT, 0.01% BSA, pH 7.6), such that the final reaction concentrations of EZH2/SUZ/EED (BPS, 51003) protein solution and EZH1/SUZ/EED (BPS, 51006) were 6.25 nM and 25 nM, respectively. The negative control (minimum signal control) used an equal amount of buffer instead of protein solution. The prepared protein solution was added to the 384-well reaction plate and pre-incubated at room temperature for 15 minutes. The mixture of the substrate H3 peptide fragment (custom-synthesized by GenScript, biotinylated Histone H3(21-44) peptide ([…]-GG-K(Biotin)-OH)) prepared in the reaction buffer and SAM (Promega, V7601) was added into the 384-well plate, such that the final reaction concentration of H3 peptide fragment was 10 μM, and the final concentration of SAM was 3 μM. The mixture was centrifuged at 1000 rpm for 1 min. The 384-well reaction plate was placed in a constant temperature shaker and incubate at 30° C. for 3 h at a speed of 300 rpm. Then the detection reagent was added according to the experimental process of the kit MTase-Glo (Promega, V7601) and incubated.
(§2) After incubation, read with BMG PHERAStar. The luminescence signals obtained by positive control (maximum signal control) and negative control (minimum signal control) were normalized to obtain the inhibition rate of different concentrations of compounds. Then, the IC50 of the compound on the enzyme activity inhibition was calculated by GraphPad Prism 6 with log(inhibitor) vs. response-Variable slope model fitting. The fitting equation is: Y=Bottom+(Top−Bottom)/(1+10^((Log IC50−X)*HillSlope)), wherein Y represents the known percentage remaining enzyme activity, and X represents the known activity after Log compound concentration.

EZH1/SUZ/EED = molecular target: T2, EZH1/SUZ/EED (Homo sapiens, UniProt O75530+Q15022+Q92800); assay: Inhibitory effect on EZH1 by the MTase-Glo method (Test Example 1); assay type: biochemical; conditions: EZH1/SUZ/EED 25 nM, H3 peptide 10 μM, SAM 3 μM, 30° C. 3 h, read-out: Test Example 1 WT EZH1 IC50
T2 construct: purchased BPS 51006
Experimental: as §1, §2

[1] = test system: H3K27Me3 methylation in Karpas-422 cells; assay: H3K27Me3 cell method, inhibition of H3K27Me3 methylation (Test Example 2); assay type: cell-based, human; conditions: Homo sapiens, KARPAS-422, 72 h
Experimental: Karpas-422 (Nanjing Kebai, CBP60629) cells were seeded in a 96-well plate (Corning, 3894) at 15,000 cells per well in culture medium (80% 1640 (Hyclone, SH30809.01)+20% FBS (Corning, 35-081-CV)), and then added with different concentrations of compounds for treatment. The cell growth group without adding compounds is used as a positive control (maximum signal control), and the medium is used as a negative control (minimum signal control), while ensuring that in each reaction well, the final concentration of DMSO was 0.2%. Compounds and cells were incubated for 3 days in a cell culture incubator (37° C., 5% CO2). The 96-well plate was taken out from the cell culture incubator and equilibrated to room temperature, and 25 ul of cell suspension was taken out into a 384-well plate. The CCK8 (Beiyuntian, C0040) detection reagent was added, incubated at 37° C. for 1 h, and […] was detected. The rest of the cells followed the procedure of the kit EPIgeneous H3K27Me3 cellular kit (Cisbio, 62KC3PAE) to carry out experiment, read HTRF signal with BMG PHERAStar. […] By GraphPad Prism 6 with log(inhibitor)vs.response-Variable slope model simulation, the IC50 of the compound on cell activity inhibition was calculated. The fitting equation is: Y=Bottom+(Top−Bottom)/(1+10^((Log IC50−X)*HillSlope)), wherein Y represents the inhibition rate, and X represents the known concentration of the compound after Log.

[2] = Karpas-422 cells, 3 days incubation, HTRF signal, read-out: Test Example 2 H3K27Me3 inhibition (Karpas-422) IC50
[3] = read-out: Test Example 2 H3K27Me3 inhibition (Karpas-422) IC50(nM)

T1 sequence (Q15910 2-746 limits assumed): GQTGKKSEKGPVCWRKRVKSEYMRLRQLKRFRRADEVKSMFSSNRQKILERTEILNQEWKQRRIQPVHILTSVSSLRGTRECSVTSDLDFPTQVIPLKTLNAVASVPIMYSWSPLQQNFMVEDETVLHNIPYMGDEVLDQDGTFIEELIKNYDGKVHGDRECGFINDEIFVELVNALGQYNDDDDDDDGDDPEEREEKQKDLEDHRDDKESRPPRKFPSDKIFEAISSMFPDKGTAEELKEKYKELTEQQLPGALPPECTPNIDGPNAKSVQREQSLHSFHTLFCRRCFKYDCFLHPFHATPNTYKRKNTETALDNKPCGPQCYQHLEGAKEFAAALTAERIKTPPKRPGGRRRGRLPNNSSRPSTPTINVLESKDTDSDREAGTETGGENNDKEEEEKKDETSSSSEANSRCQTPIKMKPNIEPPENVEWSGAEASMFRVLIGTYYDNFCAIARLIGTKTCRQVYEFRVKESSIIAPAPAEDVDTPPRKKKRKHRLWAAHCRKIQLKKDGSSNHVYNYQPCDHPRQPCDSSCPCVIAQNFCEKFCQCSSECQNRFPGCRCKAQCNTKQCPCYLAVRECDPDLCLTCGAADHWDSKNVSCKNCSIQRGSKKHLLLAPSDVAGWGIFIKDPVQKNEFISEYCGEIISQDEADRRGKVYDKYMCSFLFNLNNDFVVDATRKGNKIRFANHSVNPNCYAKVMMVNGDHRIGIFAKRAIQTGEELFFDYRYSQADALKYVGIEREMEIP
T1 sequence (Q15022 2-739 partner limits assumed): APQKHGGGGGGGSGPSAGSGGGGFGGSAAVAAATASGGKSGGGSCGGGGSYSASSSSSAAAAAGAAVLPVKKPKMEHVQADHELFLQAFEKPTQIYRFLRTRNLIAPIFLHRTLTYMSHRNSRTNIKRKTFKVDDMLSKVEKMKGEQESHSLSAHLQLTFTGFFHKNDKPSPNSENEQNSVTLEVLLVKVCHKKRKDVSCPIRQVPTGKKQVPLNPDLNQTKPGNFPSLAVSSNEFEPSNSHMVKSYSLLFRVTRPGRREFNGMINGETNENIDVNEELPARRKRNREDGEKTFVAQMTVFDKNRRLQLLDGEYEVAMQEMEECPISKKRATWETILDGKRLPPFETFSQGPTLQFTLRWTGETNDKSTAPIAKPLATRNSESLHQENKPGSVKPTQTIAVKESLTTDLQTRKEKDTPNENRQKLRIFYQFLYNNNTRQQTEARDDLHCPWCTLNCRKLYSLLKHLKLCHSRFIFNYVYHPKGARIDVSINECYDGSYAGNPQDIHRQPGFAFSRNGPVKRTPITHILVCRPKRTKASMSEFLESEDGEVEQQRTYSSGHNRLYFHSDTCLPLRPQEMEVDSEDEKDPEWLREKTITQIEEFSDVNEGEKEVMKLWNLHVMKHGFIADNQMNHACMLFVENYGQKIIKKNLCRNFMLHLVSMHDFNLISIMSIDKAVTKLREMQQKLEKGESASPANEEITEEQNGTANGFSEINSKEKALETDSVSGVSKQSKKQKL
T1 sequence (O75530 2-441 partner limits assumed): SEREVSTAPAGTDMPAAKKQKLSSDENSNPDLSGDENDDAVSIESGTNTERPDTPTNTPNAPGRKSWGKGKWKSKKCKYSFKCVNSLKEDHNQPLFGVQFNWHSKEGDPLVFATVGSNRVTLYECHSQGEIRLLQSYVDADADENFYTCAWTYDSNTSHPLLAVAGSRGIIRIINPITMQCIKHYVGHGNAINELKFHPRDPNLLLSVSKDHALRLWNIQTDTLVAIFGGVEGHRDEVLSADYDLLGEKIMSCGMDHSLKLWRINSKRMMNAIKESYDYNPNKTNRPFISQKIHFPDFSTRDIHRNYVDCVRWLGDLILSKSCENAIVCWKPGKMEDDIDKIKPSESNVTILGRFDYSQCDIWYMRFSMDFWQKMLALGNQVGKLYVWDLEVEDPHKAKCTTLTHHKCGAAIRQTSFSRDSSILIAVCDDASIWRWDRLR
T2 sequence (Q92800 2-747 limits assumed): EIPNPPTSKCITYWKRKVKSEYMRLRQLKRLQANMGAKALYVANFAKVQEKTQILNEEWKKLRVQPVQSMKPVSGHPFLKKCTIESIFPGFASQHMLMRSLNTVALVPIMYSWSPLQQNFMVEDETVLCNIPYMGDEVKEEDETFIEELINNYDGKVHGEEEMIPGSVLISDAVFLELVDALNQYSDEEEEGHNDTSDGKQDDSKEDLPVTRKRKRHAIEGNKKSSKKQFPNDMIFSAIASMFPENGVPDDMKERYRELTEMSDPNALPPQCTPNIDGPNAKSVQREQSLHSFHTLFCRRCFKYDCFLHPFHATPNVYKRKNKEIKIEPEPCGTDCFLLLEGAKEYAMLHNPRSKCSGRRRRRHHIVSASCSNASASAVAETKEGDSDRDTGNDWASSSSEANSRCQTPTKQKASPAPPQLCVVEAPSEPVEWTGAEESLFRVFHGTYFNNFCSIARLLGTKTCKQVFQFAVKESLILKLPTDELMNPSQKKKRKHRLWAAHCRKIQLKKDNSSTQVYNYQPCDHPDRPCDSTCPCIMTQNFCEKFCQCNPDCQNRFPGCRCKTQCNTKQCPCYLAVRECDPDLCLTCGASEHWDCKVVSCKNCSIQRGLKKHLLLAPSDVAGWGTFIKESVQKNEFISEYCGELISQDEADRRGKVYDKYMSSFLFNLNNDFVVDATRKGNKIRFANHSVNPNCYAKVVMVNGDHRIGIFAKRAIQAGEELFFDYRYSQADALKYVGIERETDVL
T2 sequence (Q15022 2-739 partner limits assumed): as the sequence (Q15022 2-739 partner limits assumed) above
T2 sequence (O75530 2-441 partner limits assumed): as the sequence (O75530 2-441 partner limits assumed) above

Row | SMILES | IC50 (EZH2/SUZ/EED) [nM] | IC50 (EZH1/SUZ/EED) [nM] | IC50 [1, 2] [nM] | IC50 [1, 3] [nM]
1 | Cc1cc(C)c(CNC(=O)c2cc(Cl)c3c(c2C)OC(C2CCC(N(C)C4CC(F)C4)CC2)CO3)c(=O)[nH]1 (centres unmarked) [Compound 126] | 20.3 | 218 | 818 | –
2 | CSc1cc(C)[nH]c(=O)c1CNC(=O)c1cc(Cl)c2c(c1C)O[C@H]([C@H]1CC[C@H](N3CC(OC4CC4)C3)CC1)CO2 [Compound 12] | 2.6 | – | 9.4 | –
3 | CSc1cc(C)[nH]c(=O)c1CNC(=O)c1cc(Cl)c2c(c1C)O[C@@H]([C@H]1CC[C@H](N3CCC3)CC1)CO2 [Compound 33] | 3.6 | 9.4 | – | 7.7
4 | Cc1cc(C)c(CNC(=O)c2cc(Cl)c3c(c2C)OC(C2CCC(NC4CC(F)C4)CC2)CO3)c(=O)[nH]1 (single isomer, unassigned) [Compound 64] | 16.6 | 254 | 896 | –
5 | Cc1cc(C)c(CNC(=O)c2cc(Cl)c3c(c2C)O[C@@H]([C@H]2CC[C@H](N4CC5COCC5C4)CC2)CO3)c(=O)[nH]1 (some centres unmarked) [Compound 75] | 48.1 | 199 | 245 | –
6 | Cc1cc(C)c(CNC(=O)c2cc(Cl)c3c(c2C)O[C@@H](C2CCN(CC4COC4)CC2)CO3)c(=O)[nH]1 [Compound 86] | 20.1 | – | > 1000 | –
7 | CSc1cc(C)[nH]c(=O)c1CNC(=O)c1cc(Cl)c2c(c1C)O[C@@H]([C@H]1CC[C@H](N3CC4(CCOC4)C3)CC1)CO2 [Compound 48] | – | 6 | 27.9 | –
8 | CSc1cc(C)[nH]c(=O)c1CNC(=O)c1cc(Cl)c2c(c1C)O[C@@H]([C@H]1CC[C@H](N3CC4(CCO4)C3)CC1)CO2 [Compound 46] | – | 7.7 | 65.8 | –
9 | COC1CC2CN([C@H]3CC[C@@H]([C@H]4COc5c(Cl)cc(C(=O)NCc6c(SC)cc(C)[nH]c6=O)c(C)c5O4)CC3)CC2C1 (some centres unmarked) [Compound 49] | – | 2.2 | 2.8 | –
10 | COC1CN([C@H]2CC[C@H]([C@H]3COc4c(Cl)cc(C(=O)NCc5c(SC)cc(C)[nH]c5=O)c(C)c4O3)CC2)C1 [Compound 9] | 3.1 | – | 14.2 | –
11 | CSc1cc(C)[nH]c(=O)c1CNC(=O)c1cc(Cl)c2c(c1C)O[C@@H]([C@H]1CC[C@H](N3CC4COCC4C3)CC1)CO2 (some centres unmarked) [Compound 15] | 2.1 | – | 101 | –
12 | Cc1cc(C)c(CNC(=O)c2cc(Cl)c3c(c2C)OC(C2CCC(N4CCOCC4)CC2)CO3)c(=O)[nH]1 (single isomer, unassigned) [Compound 81] | 31 | – | > 1000 | –
13 | Cc1cc(C)c(CNC(=O)c2cc(Cl)c3c(c2C)OC(C2CCC(N4CC(C(C)(C)O)C4)CC2)CO3)c(=O)[nH]1 (centres unmarked) [Compound 85] | 10.5 | – | 95.5 | –
14 | COc1cc(C)[nH]c(=O)c1CNC(=O)c1cc(Cl)c2c(c1C)O[C@@H]([C@H]1CC[C@H](N3CC(OC)C3)CC1)CO2 [Compound 98] | 5.7 | – | 462 | –
15 | CON(C)C1CCC(C2COc3c(Cl)cc(C(=O)NCc4c(C)cc(C)[nH]c4=O)c(C)c3O2)CC1 (single isomer, unassigned) [Compound 78] | 11.9 | – | – | 370
16 | CO[C@@H]1CCN([C@H]2CC[C@H]([C@H]3COc4c(Cl)cc(C(=O)NCc5c(SC)cc(C)[nH]c5=O)c(C)c4O3)CC2)C1 [Compound 42] | – | 8.6 | 47.1 | –
17 | CO[C@H]1CCN([C@H]2CC[C@@H]([C@H]3COc4c(Cl)cc(C(=O)NCc5c(SC)cc(C)[nH]c5=O)c(C)c4O3)CC2)C1 [Compound 39] | 4 | 7.3 | – | –
